Data published in patent US20240116985A1, “STAPLED PEPTIDES AND METHODS THEREOF” (priority 2020, published 2024).
Like-named read-outs stand apart in the source and are kept apart here.

Legend:
CHI Log D procedure = assay type: physicochemical; details: for CHI Log D: pH 7.4; for chromatographic logD: pH 7.4, CHI Log D
[1] = target: T1, full-length beta-Catenin (Uniprot ID P35222) (Homo sapiens, UniProt P35222); assay: Fluorescence polarization IC50 (beta-catenin / 5FAM-TCF4 10-53 competition); assay type: binding
T1 construct: 10 nM full-length beta-Catenin (Uniprot ID P35222)
T1 sequence (P35222 1-781): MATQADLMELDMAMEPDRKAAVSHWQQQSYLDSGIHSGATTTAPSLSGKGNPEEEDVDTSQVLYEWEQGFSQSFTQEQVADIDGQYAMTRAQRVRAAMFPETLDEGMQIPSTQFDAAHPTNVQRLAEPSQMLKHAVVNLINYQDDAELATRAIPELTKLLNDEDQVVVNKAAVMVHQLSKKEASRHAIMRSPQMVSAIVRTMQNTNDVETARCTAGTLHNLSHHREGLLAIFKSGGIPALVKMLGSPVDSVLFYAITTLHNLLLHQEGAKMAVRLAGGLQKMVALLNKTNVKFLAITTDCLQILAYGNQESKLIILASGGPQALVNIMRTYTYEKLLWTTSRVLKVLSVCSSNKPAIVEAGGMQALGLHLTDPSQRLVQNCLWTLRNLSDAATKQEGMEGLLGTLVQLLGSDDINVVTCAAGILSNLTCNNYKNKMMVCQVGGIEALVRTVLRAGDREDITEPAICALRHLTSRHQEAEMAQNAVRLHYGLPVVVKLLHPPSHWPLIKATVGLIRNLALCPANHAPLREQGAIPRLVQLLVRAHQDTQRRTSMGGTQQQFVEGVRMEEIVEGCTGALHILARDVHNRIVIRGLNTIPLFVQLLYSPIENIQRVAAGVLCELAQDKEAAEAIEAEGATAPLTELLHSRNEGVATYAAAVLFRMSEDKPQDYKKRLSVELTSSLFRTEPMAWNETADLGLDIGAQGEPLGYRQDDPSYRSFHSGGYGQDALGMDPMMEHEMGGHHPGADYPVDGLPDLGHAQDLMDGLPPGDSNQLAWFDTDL

[2] = fluorescence polarization, read-out: beta-Catenin FP IC50
[3] = fluorescence polarization, beta-catenin, read-out: FP EC50
[4] = Table E2-1, read-out: beta-Catenin FP IC50

Row | CHI Log D (CHI Log D procedure) | IC50 [1, 2] [µM] | IC50 ([1]; read-out: FP EC50) [µM] | chromatographic logD (CHI Log D procedure) | IC50 ([1]; read-out: beta-Catenin FP IC50) [µM] | IC50 [1, 3] [µM] | IC50 [1, 4] [µM] | Compound
1 | 2.376 | 0.098 | 0.098 | – | – | – | – | CC[C@H](C)[C@@H]1NC(=O)[C@H](CC(=O)O)NC(=O)[C@]2(CC=CCCCC3(CCCC=CCCCCCC[C@@](C)(C(=O)N[C@@H](Cc4ccccc4OC)C(=O)N[C@@H](Cc4csc5ccccc45)C(=O)N[C@@H](CCC(N)=O)C(N)=O)NC(=O)[C@H](CCC(N)=O)NC(=O)[C@H](Cc4ccccc4)NC(=O)[C@H](C)NC(=O)[C@H](C)NC(=O)[C@H](CCC(=O)O)NC(=O)[C@H](CC(=O)O)NC3=O)NC1=O)CCCN2C(C)=O (stereo partly drawn) [I-527, Ac-PL3-Asp-Ile-B5-Asp-Glu-Ala-Ala-Phe-Gln-S8-2OMeF-BztA-Gln-NH2]
2 | 2.713 | 0.37 | 0.37 | – | – | – | – | CC[C@@H](C)[C@@H](NC(=O)[C@H](CCC(N)=O)NC(=O)[C@H](Cc1csc2ccccc12)NC(=O)[C@H](Cc1ccccc1)NC(=O)[C@]1(C)CCCCCCC=CCCCC2(CCCC=CC[C@]3(CCCN3C(C)=O)C(=O)N[C@@H](CC(=O)O)C(=O)N[C@@H](CC(C)C)C(=O)N2)C(=O)N[C@@H](CC(=O)O)C(=O)N[C@@H](CCC(=O)O)C(=O)N[C@@H](C)C(=O)N[C@@H](C)C(=O)N[C@@H](Cc2ccccc2)C(=O)N[C@@H](CC(N)=O)C(=O)N1)C(N)=O (stereo partly drawn) [I-734, Ac-PL3-Asp-Leu-B5-Asp-Glu-Ala-Ala-Phe-Asn-S8-Phe-BztA-Gln-dIle-NH2]
3 | – | – | – | 3.36 | 0.221 | – | – | CC(=O)N1CCC[C@]12CC=CCCCC1(CCCC=CCCCCCC[C@@](C)(C(=O)N[C@@H](Cc3ccccc3Cl)C(=O)N[C@@H](Cc3csc4ccccc34)C(=O)N[C@@H](CCC(N)=O)C(N)=O)NC(=O)[C@H](Cc3ccccc3)NC(=O)[C@H](Cc3ccccc3)NC(=O)[C@H](C)NC(=O)[C@H](C)NC(=O)[C@H](CN(CC(=O)O)CC(F)(F)F)NC(=O)[C@H](CC(=O)O)NC1=O)NC(=O)[C@H](CC(C)(C)C)NC(=O)[C@H](CC(=O)O)NC2=O (stereo partly drawn) [I-931, Ac-PL3-Asp-Npg-B5-Asp-TfeGA-Ala-Ala-Phe-Phe-S8-2C1F-BztA-Gln-NH2]
4 | – | 0.575 | – | 1.41 | – | – | – | CC(=O)N1CCC[C@]12CC=CCCCC1(CCCC=CCCCOC(=O)N3CC[C@@](C(=O)N[C@@H](Cc4ccsc4)C(=O)N[C@@H](Cc4csc5ccccc45)C(=O)N[C@@H](CCC(N)=O)C(N)=O)(C3)NC(=O)[C@H](CC(N)=O)NC(=O)[C@H](Cc3ccccc3)NC(=O)[C@H](C)NC(=O)[C@H](C)NC(=O)[C@H](CC(=O)O)NC(=O)[C@H](CC(=O)O)NC1=O)NC(=O)[C@H](CC(C)(C)C)NC(=O)[C@H](CC(=O)O)N(C)C2=O (stereo partly drawn) [I-1160, Ac-PL3-NMeD-Npg-B5-Asp-Asp-Ala-Ala-Phe-Asn-PyrS2-3Thi-BztA-Gln-NH2]
5 | 1.982 | – | – | – | 0.761 | 0.761 | – | CC(=O)N1CCC[C@]12CC=CCCCC1(CCCC=CCCCOC(=O)N3CC[C@@](C(=O)N[C@@H](Cc4ccsc4)C(=O)N[C@@H](Cc4csc5ccccc45)C(=O)N[C@@H](C)C(N)=O)(C3)NC(=O)[C@H](CC(N)=O)NC(=O)[C@H](Cc3ccccc3)NC(=O)[C@H](C)NC(=O)[C@H](C)NC(=O)[C@H](CN(CC(=O)O)CC(F)(F)F)NC(=O)[C@H](CC(=O)O)NC1=O)NC(=O)[C@H](CC(C)(C)C)NC(=O)[C@H](CC(=O)O)NC2=O (stereo partly drawn) [I-944, Ac-PL3-Asp-Npg-B5-Asp-TfeGA-Ala-Ala-Phe-Asn-PyrS2-3Thi-BztA-Ala-NH2]
6 | – | – | – | 2.18 | – | – | 1.87 | CC(=O)N1CCC[C@]12CC=CCCCC1(CCCC=CCCCCCC[C@@](C)(C(=O)N[C@@H](Cc3ccccc3)C(=O)N[C@@H](Cc3c[nH]c4ccccc34)C(=O)N[C@@H](C)C(N)=O)NC(=O)[C@H](C(C)C)NC(=O)[C@H](Cc3ccccc3)NC(=O)[C@H](C)NC(=O)[C@H](C)NC(=O)[C@H](CCC(=O)O)NC(=O)[C@H](CC(=O)O)NC1=O)NC(=O)[C@H](C)NC(=O)[C@H](CC(=O)O)NC2=O (stereo partly drawn) [I-135, Ac-PL3-Asp-Ala-B5-Asp-Glu-Ala-Ala-Phe-Val-S8-Phe-Trp-Ala-NH2]
7 | 2.291 | 0.071 | 0.071 | – | – | – | – | CC[C@H](C)[C@@H]1NC(=O)[C@H](CC(=O)O)NC(=O)[C@]2(CC=CCCCC3(CCCC=CCCCCCC[C@@](C)(C(=O)N[C@@H](Cc4ccccc4OC)C(=O)N[C@@H](Cc4csc5ccccc45)C(=O)N[C@@H](CCC(N)=O)C(N)=O)NC(=O)[C@H](CC(N)=O)NC(=O)[C@H](Cc4ccccc4)NC(=O)[C@H](C)NC(=O)[C@H](C)NC(=O)[C@H](CC(=O)O)NC(=O)[C@H](CC(=O)O)NC3=O)NC1=O)CCCN2C(C)=O (stereo partly drawn) [I-549, Ac-PL3-Asp-Ile-B5-Asp-Asp-Ala-Ala-Phe-Asn-S8-2OMeF-BztA-Gln-NH2]
8 | 1.496 | – | – | – | – | 2.16 | 2.16 | CC(=O)N1CCC[C@]12CC=CCCCC1(CCCC=CCOC(=O)N(C)CCC[C@@](C)(C(=O)N[C@@H](Cc3ccccc3)C(=O)N[C@@H](Cc3c[nH]c4ccccc34)C(=O)N[C@@H](CCC(N)=O)C(N)=O)NC(=O)[C@H](C(C)C)NC(=O)[C@H](Cc3ccccc3)NC(=O)[C@H](C)NC(=O)[C@H](C)NC(=O)[C@H](CCC(=O)O)NC(=O)[C@H](CC(=O)O)NC1=O)NC(=O)[C@H](C)NC(=O)[C@H](CC(=O)O)NC2=O (stereo partly drawn) [I-131, Ac-PL3-Asp-Ala-B5-Asp-Glu-Ala-Ala-Phe-Val-SeN-Phe-Trp-Gln-NH2]
9 | 1.785 | 0.092 | 0.092 | – | – | – | – | CC(=O)N1CCC[C@]12CC=CCCCC1(CCCC=CCCCCOC(=O)N3CC[C@@](C(=O)N[C@@H](Cc4ccccc4)C(=O)N[C@@H](Cc4csc5ccccc45)C(=O)N[C@@H](CCC(N)=O)C(N)=O)(C3)NC(=O)[C@H](CC(N)=O)NC(=O)[C@H](Cc3ccccc3)NC(=O)[C@H](C)NC(=O)[C@H](C)NC(=O)[C@H](CCC(=O)O)NC(=O)[C@H](CC(=O)O)NC1=O)NC(=O)[C@H](C)NC(=O)[C@H](CC(=O)O)NC2=O (stereo partly drawn) [I-463, Ac-PL3-Asp-Ala-B5-Asp-Glu-Ala-Ala-Phe-Asn-PyrS3-Phe-BztA-Gln-NH2]
10 | 2.398 | 0.061 | 0.061 | – | – | – | – | CC[C@H](C)[C@@H]1NC(=O)[C@H](CC(=O)O)NC(=O)[C@]2(CC=CCCCC3(CCCC=CCCCCCC[C@@](C)(C(=O)N[C@@H](Cc4ccccc4OC)C(=O)N[C@@H](Cc4csc5ccccc45)C(=O)N[C@@H](Cc4c[nH]cn4)C(N)=O)NC(=O)[C@H](CC(N)=O)NC(=O)[C@H](Cc4ccccc4)NC(=O)[C@H](C)NC(=O)[C@H](C)NC(=O)[C@H](CC(=O)O)NC(=O)[C@H](CC(=O)O)NC3=O)NC1=O)CCCN2C(C)=O (stereo partly drawn) [I-553, Ac-PL3-Asp-Ile-B5-Asp-Asp-Ala-Ala-Phe-Asn-S8-2OMeF-BztA-His-NH2]
11 | 2.269 | 0.051 | 0.051 | – | – | – | – | CC(=O)N1CCC[C@]12CC=CCCCC1(CCCC=CCCCCCC[C@@](C)(C(=O)N[C@@H](Cc3ccccc3)C(=O)N[C@@H](Cc3csc4ccccc34)C(=O)N[C@@H](CCC(N)=O)C(N)=O)NC(=O)[C@H](CC(N)=O)NC(=O)[C@H](Cc3ccccc3)NC(=O)[C@H](C)NC(=O)[C@H](C)NC(=O)[C@H](CC(=O)O)NC(=O)[C@H](CC(=O)O)NC1=O)NC(=O)[C@H](CC(C)C)NC(=O)[C@H](CC(=O)O)NC2=O (stereo partly drawn) [I-562, Ac-PL3-Asp-Leu-B5-Asp-Asp-Ala-Ala-Phe-Asn-S8-Phe-BztA-Gln-NH2]
12 | 2.862 | 0.626 | 0.626 | – | – | – | – | CCCC[C@@H]1NC(=O)[C@H](C)NC(=O)[C@H](CCC(=O)O)NC(=O)[C@H](CC(=O)O)NC(=O)C2(CCCC=CCCCCCC[C@@](C)(C(=O)N[C@@H](Cc3ccccc3)C(=O)N[C@@H](Cc3csc4ccccc34)C(=O)N[C@@H](CCC(N)=O)C(N)=O)NC(=O)[C@H](CCC(N)=O)NC(=O)[C@H](Cc3ccccc3)NC1=O)CCCC=CC[C@]1(CCCN1C(C)=O)C(=O)N[C@@H](CC(=O)O)C(=O)N[C@@H]([C@@H](C)CC)C(=O)N2 (stereo partly drawn) [I-666, Ac-PL3-Asp-Ile-B5-Asp-Glu-Ala-nLeu-Phe-Gln-S8-Phe-BztA-Gln-NH2]

Row | Compound | CHI Log D (CHI Log D procedure) | IC50 [1, 2] [µM] | IC50 ([1]; read-out: FP EC50) [µM] | chromatographic logD (CHI Log D procedure) | IC50 ([1]; read-out: beta-Catenin FP IC50) [µM] | IC50 [1, 3] [µM] | IC50 [1, 4] [µM]
13 | CC(=O)N1CCC[C@]12CC=CCCCC1(CCCC=CCCCCCC[C@@](C)(C(=O)N[C@@H](Cc3ccccc3)C(=O)N[C@@H](Cc3csc4ccccc34)C(=O)N[C@@H](CCC(N)=O)C(N)=O)NC(=O)[C@H](CCC(N)=O)NC(=O)[C@H](Cc3ccccc3)NC(=O)[C@H](C)NC(=O)[C@H](C)NC(=O)[C@H](CCC(=O)O)NC(=O)[C@H](CC(=O)O)NC1=O)NC(=O)[C@H](CCCCNC(=O)CN=[N+]=[N-])NC(=O)[C@H](CC(=O)O)NC2=O (stereo partly drawn) [I-589, Ac-PL3-Asp-[AzAc]Lys-B5-Asp-Glu-Ala-Ala-Phe-Gln-S8-Phe-BztA-Gln-NH2] | 2.119 | – | 0.048 | – | – | – | –
